Experimental data from patent US9995734B2, “Human T cell line assay for evaluating the immunologic identity of glatiramer acetate preparations” (Mylan Inc., priority 2013, dated 2018).

Legend:
[1] = tested on: Donor 1 COP T-Cell Lines; test: Multiplex bead cytokine assay (FlowCytoMix), Donor 1 COP T-cell lines; type: cell-based, human; details: for IFN-γ / IL-2 / IL-5 / IL-10 / IL-13 / IL-22 / TNF-α: 24 hours after Day 56 restimulation
Method: Culture medium was removed from cultures prepared as for proliferation assay and utilized to measure cytokine production. In most cases culture medium was collected 18-24 hours after mixing T-cells, APC, and stimulating antigen. Cytokine production was measured by ELISA or bead assay. For measuring cytokine production, 100-150 μL culture medium (100 μL if culture was to be continued, otherwise 150 μL) was removed from each well. In some cases, the culture was continued 48 hours, for a total of 72 hours of culture, and the proliferative response measured.
(§1) The concentration of multiple cytokines was measured simultaneously using FlowCytoMix™ kits (eBioscience, San Diego Calif.). These are fluorescent bead based assays consisting of beads conjugated to anti cytokine antibodies. Beads specific for each cytokine are distinguished by size and fluorescence at 670 run. Cytokine bound to each bead is detected using a phycoerythrin conjugated antibody so that the fluorescence at 585 nm reflects the concentration of cytokine in the sample. Two kits were utilized which measured different cytokine panels. The TH1/TH2 kit measures IFN-γ, IL-1β, IL-2, IL-4, IL-5, IL-6, IL-8, IL-10, IL-12p70, TNF-α (TNF) and TNF-β (LT). The TH1/TH2/TH9/TH17/TH22 kit measures […], IL-1β, IL-2, IL-4, IL-5, IL-6, IL-9, IL-10, IL-12p70, IL-13, IL-17, IL-22, and TNF-α (TNF). Both kits were used following the manufacturer's instructions.
IL-12p70, IFN-γ, IL-2, IL-10, IL-8, IL-6, IL-5, IL-4, IL-1β, TNF-α (TNF), and TNF-β (LT) secretion were measured in response to stimulation with 1, 3, or 10 μg/mL GMA, or 1, 3, or 10 μg/mL COP, as well as a no-antigen control and an MBP control, in the presence of autologous EBV-transformed B-LCL.

[2] = tested on: Donor 3 GMA Responsive T Cells; test: Cytokine multiplex assay, Donor 3 GMA responsive T cells; type: cell-based, human; details: culture medium
Method: as §1

[3] = 222-B11 (so in the source), 1 μg/mL
[4] = 222-B11 (so in the source), 3 μg/mL
[5] = 222-B11 (so in the source), 10 μg/mL

Substance glatiramer acetate [GMA] has a TNF-β ([1]; 222-2D8, 10 μg/mL, Day 34 supernatants) of 243 pg/mL, an IFN-γ ([1]; 222-2E1, 1 μg/mL) of 49.11 pg/mL and an IL-2 ([1]; 222-2E1, 1 μg/mL) of 0 pg/mL. For the same substance, the IL-5 ([1]; 222-2E1, 1 μg/mL) was 0 pg/mL, the IL-10 ([1]; 222-2E1, 1 μg/mL) was 0 pg/mL and the IL-13 ([1]; 222-2E1, 1 μg/mL) was 146.02 pg/mL. It also gave an IL-22 ([1]; 222-2E1, 1 μg/mL) of 21.77 pg/mL, a TNF-α ([1]; 222-2E1, 1 μg/mL) of 9.36 pg/mL and an IFN-γ ([1]; 222-2E1, 3 μg/mL) of 162.68 pg/mL. It also gave an IL-2 ([1]; 222-2E1, 3 μg/mL) of 0 pg/mL, an IL-5 ([1]; 222-2E1, 3 μg/mL) of 0 pg/mL and an IL-10 ([1]; 222-2E1, 3 μg/mL) of 7.1 pg/mL. The IL-13 ([1]; 222-2E1, 3 μg/mL) was 1050.77 pg/mL, the IL-22 ([1]; 222-2E1, 3 μg/mL) was 25.71 pg/mL and the TNF-α ([1]; 222-2E1, 3 μg/mL) was 65.44 pg/mL. The IFN-γ ([1]; 222-2E1, 10 μg/mL) was 349.76 pg/mL, the IL-2 ([1]; 222-2E1, 10 μg/mL) was 0 pg/mL and the IL-5 ([1]; 222-2E1, 10 μg/mL) was 128.4 pg/mL. The IL-10 ([1]; 222-2E1, 10 μg/mL) was 16.33 pg/mL, the IL-13 ([1]; 222-2E1, 10 μg/mL) was 2036.36 pg/mL and the IL-22 ([1]; 222-2E1, 10 μg/mL) was 0 pg/mL. The TNF-α ([1]; 222-2E1, 10 μg/mL) was 170.24 pg/mL, the IFN-γ [1, 3] was 0 pg/mL and the IL-2 [1, 3] was 0 pg/mL. The IL-5 [1, 3] was 0 pg/mL, the IL-10 [1, 3] was 1.3 pg/mL and the IL-13 [1, 3] was 29.41 pg/mL. It also gave an IL-22 [1, 3] of 42.51 pg/mL, a TNF-α [1, 3] of 0 pg/mL and an IFN-γ [1, 4] of 0 pg/mL. For the same substance, the IL-2 [1, 4] was 0 pg/mL, the IL-5 [1, 4] was 0 pg/mL and the IL-10 [1, 4] was 0 pg/mL. The IL-13 [1, 4] was 133.55 pg/mL, the IL-22 [1, 4] was 51.87 pg/mL and the TNF-α [1, 4] was 0 pg/mL. The IFN-γ [1, 5] was 37.79 pg/mL, the IL-2 [1, 5] was 0 pg/mL and the IL-5 [1, 5] was 94.56 pg/mL. The IL-10 [1, 5] was 0.4 pg/mL, the IL-13 [1, 5] was 1563.22 pg/mL and the IL-22 [1, 5] was 0 pg/mL. The TNF-α [1, 5] was 0 pg/mL, the “IFN-γ production” value ([1]; Line 105 (so in the source), Table 14 = 222-1C5, after appropriate dilution of supernatants) was “comparable amounts” and the IFN-γ ([2]; T-cell line 165-B5G) was 201 pg/mL. For the same substance, the IL-4 ([2]; T-cell line 165-B5G) was 47 pg/mL, the IL-5 ([2]; T-cell line 165-B5G) was 399 pg/mL and the IL-13 ([2]; T-cell line 165-B5G) was 2930 pg/mL. For the same substance, the IL-22 ([2]; T-cell line 165-B5G) was 248 pg/mL, the IFN-γ ([2]; T-cell line 165-D8G) was 121 pg/mL and the IL-4 ([2]; T-cell line 165-D8G) was 12 pg/mL. For the same substance, the IL-5 ([2]; T-cell line 165-D8G) was 309 pg/mL, the IL-13 ([2]; T-cell line 165-D8G) was 3326 pg/mL and the IL-22 ([2]; T-cell line 165-D8G) was 405 pg/mL. It also gave an IFN-γ ([2]; T-cell line 165-E9G) of 837 pg/mL, an IL-4 ([2]; T-cell line 165-E9G) of 6 pg/mL and an IL-5 ([2]; T-cell line 165-E9G) of 236 pg/mL. For the same substance, the IL-13 ([2]; T-cell line 165-E9G) was 1499 pg/mL, the IL-22 ([2]; T-cell line 165-E9G) was 245 pg/mL and the IFN-γ ([2]; T-cell line 165-F8G) was 889 pg/mL. It also gave an IL-4 ([2]; T-cell line 165-F8G) of 5 pg/mL, an IL-5 ([2]; T-cell line 165-F8G) of 370 pg/mL and an IL-13 ([2]; T-cell line 165-F8G) of 1193 pg/mL. For the same substance, the IL-22 ([2]; T-cell line 165-F8G) was 197 pg/mL, the IFN-γ ([2]; T-cell line 165-F10G) was 1108 pg/mL and the IL-4 ([2]; T-cell line 165-F10G) was 114 pg/mL. The IL-5 ([2]; T-cell line 165-F10G) was 2589 pg/mL, the IL-13 ([2]; T-cell line 165-F10G) was 10897 pg/mL and the IL-22 ([2]; T-cell line 165-F10G) was 680 pg/mL. It also gave an IFN-γ ([2]; T-cell line 165-H11G) of 724 pg/mL, an IL-4 ([2]; T-cell line 165-H11G) of 7 pg/mL and an IL-5 ([2]; T-cell line 165-H11G) of 320 pg/mL. It also gave an IL-13 ([2]; T-cell line 165-H11G) of 1058 pg/mL and an IL-22 ([2]; T-cell line 165-H11G) of 201 pg/mL.
